Results on six compounds are retold here after article PMC6268909 (Molecules, 2012).

In brackets after ≈: the same amount, converted by molar mass. Counter-ions that a name gives are not always drawn. Like-named read-outs stand apart in the source and are kept apart here.

Series [1] has as its system Agrobacterium tumefaciens ATCC 11158. Kind of series: microbe, parasite or virus in culture. It is filed as cell-based. The conditions noted are these: ATCC11158, 24 h, read-out: IC50, antimicrobial activity, A. tum.
The subject of series [2] is Bacillus subtilis ATCC 11562. Kind of series: microbe, parasite or virus in culture. The series is classed as cell-based. The conditions noted are these: ATCC11562, 24 h, read-out: IC50, antimicrobial activity, B. sub.
The subject of series [3] is Pseudomonas lachrymans ATCC 11921. Kind of series: microbe, parasite or virus in culture. The series is classed as cell-based. Particulars: ATCC11921, 24 h, read-out: IC50, antimicrobial activity, P. lach.
The test system of series [4] is Ralstonia solanacearum ATCC 11696. Kind of series: microbe, parasite or virus in culture. The series is classed as cell-based. Particulars: ATCC11696, 24 h, read-out: IC50, antimicrobial activity, R. sol.
The test system of series [5] is Xanthomonas vesicatoria ATCC 11633. Kind of series: microbe, parasite or virus in culture. The series is classed as cell-based. Particulars: ATCC11633, 24 h, read-out: IC50, antimicrobial activity, X. ves.
In the next series the test system is Magnaporthe oryzae P131. Kind of series: microbe, parasite or virus in culture. The series is classed as cell-based. Particulars: Pyricularia oryzae, read-out: IC50, antimicrobial activity, M. or.
The target in series [6] is T1, acetylcholinesterase (AChE) (Homo sapiens, UniProt P22303).
T1 construct: purchased Sigma-Aldrich (St. Louis, MO, USA)
Kind of series: biochemical.

A further series has as its system Alternaria alternata. Also on record: method as in PMID 15787237. Particulars: cited from earlier work.
Series [7] concerns the target acetycholinesterase (AChE). Details: method as in PMID 15787237. Particulars: previously reported; cited from earlier work.
Series [8] deals with human colon carcinoma cells. The conditions noted are these: cited from earlier work.
In series [9] the test system is various cultured mammalian cells. Particulars: cited from earlier work.
In series [10] the test system is Cladosporium cladosporioides. Details: method as in PMID 20158153. The conditions noted are these: compound from endophytic Penicillium sp.; cited from earlier work.
Another series relates to C. sphaerospermum. Details: method as in PMID 20158153. The conditions noted are these: compound from endophytic Penicillium sp.; cited from earlier work.
The test system of another series is Staphylococcus aureus. Particulars: cited from earlier work.
The test system of series [11] is methicillin-resistant S. aureus. The conditions noted are these: cited from earlier work.
The subject of a further series is Bacillus megaterium. Also on record: method as in earlier work. The conditions noted are these: compound from endophytic fungus of Meliotus dentatus; cited from earlier work.
Another series has as its system Microbotryum violacerum. Details: method as in earlier work. Particulars: compound from endophytic fungus of Meliotus dentatus; cited from earlier work.

T1 sequence (P22303 32-614, species assumed): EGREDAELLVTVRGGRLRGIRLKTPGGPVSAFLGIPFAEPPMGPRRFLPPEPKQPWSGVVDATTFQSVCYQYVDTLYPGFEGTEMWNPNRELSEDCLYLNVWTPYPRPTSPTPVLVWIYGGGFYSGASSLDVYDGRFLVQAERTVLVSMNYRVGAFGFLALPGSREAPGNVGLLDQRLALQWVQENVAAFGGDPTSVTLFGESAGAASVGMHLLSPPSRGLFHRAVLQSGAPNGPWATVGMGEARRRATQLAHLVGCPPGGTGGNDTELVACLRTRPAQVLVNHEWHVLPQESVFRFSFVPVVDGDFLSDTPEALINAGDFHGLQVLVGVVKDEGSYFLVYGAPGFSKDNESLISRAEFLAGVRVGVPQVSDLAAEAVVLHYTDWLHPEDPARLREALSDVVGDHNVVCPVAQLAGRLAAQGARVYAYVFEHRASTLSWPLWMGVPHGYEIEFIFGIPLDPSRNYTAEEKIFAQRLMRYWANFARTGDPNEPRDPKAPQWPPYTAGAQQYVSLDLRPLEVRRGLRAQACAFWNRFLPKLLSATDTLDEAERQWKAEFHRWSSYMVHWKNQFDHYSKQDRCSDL

Turning to `[H]/N=C(/N)N[C@H]1[C@H](O)[C@@H](O)[C@H](O[C@@H]2O[C@@H](C)[C@](O)(C=O)[C@H]2O[C@@H]2O[C@@H](CO)[C@H](O)[C@@H](O)[C@@H]2NC)[C@@H](N/C(N)=N\[H])[C@@H]1O` [streptomycin sulfate, reference compound], the IC50 in series [1] worked out at 6.34 µg/mL; in series [2], 8.35 µg/mL; in [3] it was 8.34 µg/mL; in [4], 7.19 µg/mL; in series [5], 6.79 µg/mL.
As for `COC1=CC2(C)OC(=O)c3c(O)cc(OC)cc3C2=C(O)C1=O` (centres unmarked) [Botrallin (4), 1,7-dihydroxy-3,9-dimethoxy-4a-methyl-6H-dibenzo[b,d]pyran-2,6 (4aH)-dione], the concentration for half-maximal inhibition (IC50) in series [1] amounted to 87.5 µg/mL (≈ 275 µM); in series [2], 98.5 µg/mL (≈ 309 µM); in [3] it was 92.2 µg/mL (≈ 290 µM); in series [4], 85.5 µg/mL (≈ 269 µM); in series [5] it was 86.3 µg/mL (≈ 271 µM); with Magnaporthe oryzae P131 (P131, 7 h at 25 °C) it was 107 µg/mL (≈ 337 µM). The half-maximal inhibitory concentration (IC50) in series [6] is 326 µM. For the same compound, in the series on Alternaria alternata, the MIC was 62.5 µg/mL (≈ 196 µM). Moreover, the “IC50, acetycholinesterase (AChE) inhibitory activity” value in series [7] is 6.1 µg/mL (≈ 19.2 µM).
For `COc1cc(O)c2c(=O)oc3cc(O)cc(C)c3c2c1` [Alternariol 9-methyl ether (3), 3,7-dihydroxy-9-methoxy-1-methyl-6H-dibenzo[b,d]pyran-6-one], the concentration for half-maximal inhibition (IC50) came to 28.8 µg/mL (≈ 106 µM) in series [1]; 34.3 µg/mL (≈ 126 µM) in series [2]; 27.1 µg/mL (≈ 99.5 µM) in [3]; 29.2 µg/mL (≈ 107 µM) in series [4]; 30.1 µg/mL (≈ 110 µM) in series [5]; 123 µg/mL (≈ 452 µM) with Magnaporthe oryzae P131 (P131, 7 h at 25 °C). In addition, the half-maximal inhibitory concentration (IC50) in series [6] was 498 µM. Besides, the mitochondrial apoptosis entry in [8] is recorded as “induce mitochondrial apoptosis”. Also, in series [9], the “DNA strand breaks, micronuclei and gene mutations” value is “induce DNA strand breaks, micronuclei and gene mutations”.
As to `COC(=O)Nc1nc2ccccc2[nH]1` [carbendazim, reference compound], the IC50 with Magnaporthe oryzae P131 (P131, 7 h) worked out at 13 µg/mL (≈ 68 µM).
For the compound `COc1cc(O)c2c(=O)oc3cc(O)c(Cl)c(C)c3c2c1` [Palmariol B (1), 2-chloro-3,7-dihydroxy-9-methoxy-1-methyl-6H-dibenzo[b,d]pyran-6-one], the IC50 was 19.4 µg/mL (≈ 63.1 µM) in series [1]; 27.7 µg/mL (≈ 90.2 µM) in series [2]; 16.7 µg/mL (≈ 54.6 µM) in series [3]; 17.5 µg/mL (≈ 57.1 µM) in [4]; 28.1 µg/mL (≈ 91.7 µM) in series [5]; 119 µg/mL (≈ 387 µM) in the series with Magnaporthe oryzae P131 (P131, 7 h at 25 °C). The compound further had a concentration for half-maximal inhibition (IC50) in series [6] of 376 µM.
Turning to `CC1OC(=O)c2c(O)cccc2C1O` (centres unmarked) [4,8-dihydroxy-3-methylbenzopyran-1-one], the half-maximal inhibitory concentration (IC50) in series [1] turned out to be 18.2 µg/mL (≈ 93.8 µM); in series [2] it was 19.2 µg/mL (≈ 99 µM); in series [3], 16.2 µg/mL (≈ 83.3 µM); in series [4], 16.2 µg/mL (≈ 83.6 µM); in [5], 17.8 µg/mL (≈ 91.7 µM); in the series on Magnaporthe oryzae P131 (P131, 7 h) it was 113 µg/mL (≈ 584 µM). The compound further gave an IC50 in series [6] of 598 µM. The “antifungal activity at concentration” value in [10] is 5.00 µg/mL; in the series on C. sphaerospermum it was 10.0 µg/mL. Besides, the MIC (in the series on Staphylococcus aureus; in series [11]) was 8 µg/mL (≈ 41.2 µM) each time. In addition, in the series with Bacillus megaterium, the antibacterial activity result is given as “strong antibacterial activity”. For the same compound, the antifungal activity entry in the series with Microbotryum violacerum was “antifungal activity”.
